Experiments:
[1] = test system: A549 non-small cell lung human tumor cell line; assay: A549 tumor xenograft in athymic mice, antitumor activity; assay type: in vivo; conditions: 41st day; for Δ MEAN TUMOR VOLUME: ± SEM
Protocol: The A549 non-small cell lung human tumor cell line is purchased from the American Type Culture Collection, Rockville, Md. The cell line is free of Mycoplasma contamination (Rapid Detection System by Gen-Probe, Inc., San Diego, Calif.) and viral contamination (MAP testing by MA BioServices, Inc., Rockville, Md.). The cell line is propagated and expanded in RPMI 1640 medium containing 10% heat-inactivated FBS (Life Technologies, Grand Island, N.Y.). Cell expansions for implantation are performed in cell factories (NUNC, purchased from Fisher Scientific, Springfield, N.J.). Cells are harvested at 50–90% confluency, washed once with HBSS containing 10% FBS, and suspended in 100% HBSS.
Outbred athymic (nu/nu) female mice (“Hsd:Athymic Nude-nu” from Harlan Sprague Dawley, Indianapolis, Ind.) are anesthetized with Metofane (Mallinckrodt Veterinary, Inc., Mundelein, Ill.), and 100 μL of the cell suspension containing 1×10^7 cells is injected subcutaneously into the right axillary (lateral) region of each animal. Tumors are allowed to grow for about 20 days until a volume of ˜100 mm^3 is achieved. At this point, mice bearing tumors with acceptable morphology and size are sorted into groups of eight for the study. The sorting process produces groups balanced with respect to mean and range of tumor size. Antitumor activity is expressed as % T/C, comparing differences in tumor volumes for treatment group (T) to vehicle control group (C).
CMD1 is administered intravenously, once daily 5×/week for three weeks, at doses of 10, 25, 50, or 100 mg/kg. The final DMSO concentration is 10%. Each test group has eight mice. Tumors are measured, and individual animal body weights recorded.
Example B3 repeated except CMD2 is used.

[2] = test system: H1299 (human lung carcinoma cell); assay: Monolayer cell growth inhibition, MTS assay; assay type: cell-based; conditions: NCI-H1299, H1299, 72 hours compound treatment, lactate salts
Description: Cell lines H1299 (human lung carcinoma cell) and HCT116 (colon tumor cell) are obtained from the American Type Culture Collection, Rockville, Md. The cell lines are free of Mycoplasma contamination (Rapid Detection System by Gen-Probe, Inc., San Diego, Calif.) and viral contamination (MAP testing by MA BioServices, Inc., Rockville, Md.). The cell lines are propagated and expanded in RPMI 1640 medium containing 10% heat-inactivated FBS (Life Technologies, Grand Island, N.Y.). Cell expansions for implantation are performed in cell factories (NUNC, purchased from Fisher Scientific, Springfield, N.J.). Cells are harvested at 50–90% confluency, washed once with HBSS (Hank's Balanced Salt Solution) containing 10% FBS, and suspended in 100% HBSS.
Cell proliferation is measured with a commercial MTS kit (Promega, Madision, Wis.) assay using an adaptation of published procedures, for example, that disclosed in Feasibility of drug screening with panels of human tumor cell lines using a microculture tetrazolium assay, Alley M C, et al., Cancer Res. 1988; 48:589–601. Cells are plated in 96-well tissue culture dishes, with top and bottom rows left empty. H1299 and HCT116 cells are suspended in complete media at a density of 5.3×10^3 and 3.6×10^3 cell/mL, respectively, and 190 μl are added per well. Each cell line is added to one half of the plate. Complete medium (200 μL) is added to the top and bottom rows. Twenty-four hours later, 10 μl of MTS solution is added to one of the plates to determine the activity at the time of compound addition (T0). The plate is incubated at 37° C. for 4 hours and the OD490 is measured on a Molecular Devices Thermomax at 490 nm using the Softmax program. The T0 plate serves as a reference for initial activity at the beginning of the experiment.
Five serial dilutions (1:4) of each compound are made in a 96-deep well plate with the highest concentrations on the edge of plate. Two cell lines are tested with two compounds per plate.0 Ten microliters of each of the five dilutions are added in triplicate and complete medium alone is added to columns six and seven. The plates are incubated at 37° C. for 72 hours. The MTS solution is added (as for the T0 plate) and read four hours later.
In order to analyze the data, the average background value (media alone) is subtracted from each experimental well; the triplicate values are averaged for each compound dilution. The following formulas are used to calculate percent growth.
Lactate salts of N-hydroxy-3-[4-[[[2-(1H-indol-3-yl)-ethyl]-amino]methyl]phenyl]-2E-2-propenamide (CMD1), N-hydroxy-3-[4-[[(2-hydroxyethyl)[2-(1H-indol-3-yl)ethyl]-amino]methyl]phenyl]-2E-2-propenamide (CMD2), N-hydroxy-3-[4-[[[2-(5-methoxy-1H-indol-3-yl)-ethyl]-amino]methyl]pheny]-2E-2-propenamide (CMD3), N-hydroxy-3-[4-[[[2-(5-fluoro-1H-indol-3-yl)-ethyl]-amino]methyl]phenyl]-2E-2-propenamide (CMD4), N-hydroxy-3-[4-[[[2-(benzofur-3-yl)-ethyl]-amino]methyl]phenyl]-2E-2-propenamide (CMD5) having a purity of higher than 95% are dissolved in pure dimethylsulfoxide (DMSO) to create a stock solution. The stock solution is diluted with 5% dextrose injection, USP, just prior to dosing.

[3] = A549, 10 mg/kg i.v. once daily 5×/week for three weeks
[4] = A549, 25 mg/kg i.v. once daily 5×/week for three weeks
[5] = A549, 50 mg/kg i.v. once daily 5×/week for three weeks
[6] = A549, 100 mg/kg i.v. once daily 5×/week for three weeks

Compound: O=C(/C=C/c1ccc(CNCCc2c[nH]c3ccccc23)cc1)NO [CMD1, N-hydroxy-3-[4-[[[2-(1H-indol-3-yl)-ethyl]-amino]methyl]phenyl]-2E-2-propenamide]
- % T/C [1, 3]: 32%
- Δ MEAN TUMOR VOLUME [1, 3]: 121 ± 27 mm^3
- % T/C [1, 4]: 20%
- Δ MEAN TUMOR VOLUME [1, 4]: 77 ± 32 mm^3
- % T/C [1, 5]: 15%
- Δ MEAN TUMOR VOLUME [1, 5]: 57 ± 10 mm^3
- % T/C [1, 6]: 7%
- Δ MEAN TUMOR VOLUME [1, 6]: 28 ± 25 mm^3
- IC50 [2]: 400 nM

Source: patent US7067551B2, “Deacetylase inhibitors” (Novartis AG, priority 2000, dated 2006)
